Data on eleven compounds can be found in patent US20100056526A1, “HETEROMONOCYCLIC COMPOUND AND USE THEREOF” (Takeda Pharmaceutical Company Limited, priority 2006, published 2010).

The target in assay [1] is T1, PPARγ (Homo sapiens, UniProt P37231).
T1 construct: expressed in transfected cells; host or cells: CHO-K1
T1 sequence (P37231 1-477 isoform P37231-2): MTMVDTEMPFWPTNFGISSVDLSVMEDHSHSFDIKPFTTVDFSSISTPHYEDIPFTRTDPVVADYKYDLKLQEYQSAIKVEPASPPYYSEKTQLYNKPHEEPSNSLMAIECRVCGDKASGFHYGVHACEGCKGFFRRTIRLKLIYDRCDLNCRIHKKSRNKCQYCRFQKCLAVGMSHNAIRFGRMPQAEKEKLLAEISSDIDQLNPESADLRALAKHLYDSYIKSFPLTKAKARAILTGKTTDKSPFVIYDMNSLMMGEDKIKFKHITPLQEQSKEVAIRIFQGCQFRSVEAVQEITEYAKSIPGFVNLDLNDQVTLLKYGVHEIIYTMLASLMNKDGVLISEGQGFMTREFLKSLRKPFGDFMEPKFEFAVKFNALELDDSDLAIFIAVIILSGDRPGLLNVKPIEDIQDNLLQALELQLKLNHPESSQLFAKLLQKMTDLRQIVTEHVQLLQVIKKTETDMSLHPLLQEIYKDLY
T1 sequence (P19793 1-462 partner): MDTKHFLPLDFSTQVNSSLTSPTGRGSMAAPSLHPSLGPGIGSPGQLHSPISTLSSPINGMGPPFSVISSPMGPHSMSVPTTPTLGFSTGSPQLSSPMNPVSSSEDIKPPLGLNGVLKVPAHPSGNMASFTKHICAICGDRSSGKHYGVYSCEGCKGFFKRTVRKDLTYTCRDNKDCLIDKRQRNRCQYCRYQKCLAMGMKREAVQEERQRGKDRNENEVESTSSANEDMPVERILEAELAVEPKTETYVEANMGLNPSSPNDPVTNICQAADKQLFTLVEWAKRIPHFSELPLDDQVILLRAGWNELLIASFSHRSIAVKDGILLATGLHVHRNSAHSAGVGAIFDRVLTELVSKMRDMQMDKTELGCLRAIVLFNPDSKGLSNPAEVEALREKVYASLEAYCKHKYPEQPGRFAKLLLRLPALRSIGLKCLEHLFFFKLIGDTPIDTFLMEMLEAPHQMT
In words: Evaluation of PPARγ activating action (luciferase reporter in PPARγ:RXRα:4ERPP/CHO-K1 cells). It counts as cell-based. The following applies: CHO-K1, 24 h; test compound 10^−6 M; luciferase activity relative to control compound X (1 μM) = 100%, non-administration group = 0%; read-out: PPARγ activating action (activation % (10^−6 M)). As to the method: PPARγ:RXRα:4ERPP/CHO-K1 cells obtained in the following Reference Example 5 were cultured in F12 medium [manufactured by INVITROGEN, USA] containing 10% fetal bovine serum [manufactured by MOREGATE, Australia], seeded in a 96-well half area white plate [manufactured by Corning Coster Corporation, USA] at the density of 5×10^3 cells/well and cultured in a CO2 gas incubator at 37° C. overnight.
Then the medium was removed from the 96-well half area white plate, 45 μl of Ham's F12 medium containing 0.1% fatty acid-free bovine serum albumin (BSA) and 5 μl of test compound were added, and the cells were cultured in a CO2 gas incubator at 37° C. for 1 day. The medium was removed and 20 μl of PicaGene 7.5 [manufactured by TOYO INK MFG. CO., LTD.,.Japan] diluted 2-fold with HBSS (HANKS' BALANCED SALT SOLUTION) [manufactured by BIO WHITTAKER, USA] was added. After stirring, the luciferase activity was determined using 1420 ARVO Multilabel Counter [manufactured by PerkinElmer, USA].
The percent (%) was calculated from the luciferase activity of each test compound when the luciferase activity of the control compound (compound X: 5-[3-(4-{[2-(2-furyl)-5-methyl-1,3-oxazol-4-yl]methoxy}-3-methoxyphenyl)propyl]-1,3-oxazolidine-2,4-dione) (1 μM) was 100% and that of the test compound non-administration group was 0%.
A CHO-K1 cell cultured in a 150 cm^2 cell culture flask [manufactured by Corning Costar Corporation, USA] containing Ham's F12 medium [manufactured by INVITROGEN, USA] supplemented with 10% fetal bovine serum [manufactured by INVITROGEN, USA] was scraped by treating with 0.5 g/L trypsin-0.2 g/L EDTA (ethylenediaminetetraacetic acid) [manufactured by Life Technologies, Inc., USA], and then the cell was washed with PBS (Phosphate-buffered saline) [manufactured by INVITROGEN, USA], centrifuged (1000 rpm, 5 minutes) and suspended in PBS. Subsequently, DNA was introduced into the cell under the conditions shown below using GENE PULSER [manufactured by Bio-Rad Laboratories, USA].
Namely, to a cuvette having a 0.4 cm gap were added 8×10^6 cells and 10 μg of plasmid pVgRXR2-hPPARγ obtained in Reference Example 4 and 10 μg of reporter plasmid pGL3-4ERPP-TK neo obtained in Reference Example 3, which was subjected to electroporation at the voltage of 0.25 kV under the capacitance of 960 μF. Subsequently, the cell was transferred into a F12 medium containing 10% fetal bovine serum and cultured for 24 hours, and then the cell was scraped again and centrifuged, and then suspended in Ham's F12 medium containing 10% fetal bovine serum supplemented with 500 μg/ml of Geneticin [manufactured by INVITROGEN, USA] and 250 μg/ml of Zeocin [manufactured by INVITROGEN, USA]. The obtained suspension was diluted to the density of 10^4 cells/ml and inoculated in a 96-well plate [manufactured by Corning Costar Corporation, USA], which was cultured in a CO2 gas incubator at 37° C., whereby obtaining a Geneticin- and Zeocin-resistant transformant.
Subsequently, after the transformant cell line thus obtained was cultured in a 24-well plate [manufactured by Corning Costar Corporation, USA], a cell line in which the luciferase was expressed and induced, i.e., PPARγ:RXRα:4ERPP/CHO-K1 cell was selected by the addition of 10 μM pioglitazone hydrochloride.

Assay [2] concerns the target T2, human AT1 receptor (Homo sapiens, UniProt P30556).
T2 construct: expressed in transfected cells; host or cells: CHO-K1
T2 sequence (P30556 1-359): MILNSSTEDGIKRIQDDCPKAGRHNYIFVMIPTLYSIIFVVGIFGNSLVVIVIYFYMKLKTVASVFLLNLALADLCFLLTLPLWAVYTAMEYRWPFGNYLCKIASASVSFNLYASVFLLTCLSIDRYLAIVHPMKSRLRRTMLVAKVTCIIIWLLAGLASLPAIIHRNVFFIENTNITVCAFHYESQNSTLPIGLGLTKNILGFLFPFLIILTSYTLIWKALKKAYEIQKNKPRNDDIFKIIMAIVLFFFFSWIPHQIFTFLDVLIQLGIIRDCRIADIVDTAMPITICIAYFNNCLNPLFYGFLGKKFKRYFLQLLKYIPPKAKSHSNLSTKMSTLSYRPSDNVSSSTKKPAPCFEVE
In words: Binding assay using human AT1 receptor-expressing CHO-K1 cell membrane fraction ([125I]-angiotensin II). The following applies: 22.5 pM [125I]-angiotensin II, 9 μg AT1 membrane, 1 hr room temperature; read-out: AT1 receptor binding inhibitory action (IC50 (nM)). On the procedure: The membrane fraction for human AT1 receptor binding assay was prepared as follows. CHO-K1 cell capable of stable expression of human AT1 receptor was cultured, recovered, suspended in homogenize buffer (10 mM NaHCO3 (pH 7.4), 5 mM EDTA, 1×Complete EDTA free) [manufactured by Roche, Switzerland], and homogenized. The homogenate was centrifuged at low-speed (900×g, 10 min, 4° C.), and the supernatant was recovered and ultracentrifuged (90,000×g, 1 hr, 4° C.). The supernatant was discarded, and the pellets were resuspended in resuspension buffer (50 mM Tris (pH 7.4), 1 mM EDTA, 1×Complete EDTA free).
The binding assay was performed in the presence of 22.5 pM [^125I]-angiotensin II [manufactured by PerkinElmer, USA], 9 μg of AT1 membrane and test compound in 100 μL (total reaction volume) of reaction buffer (50 mM Tris (pH 7.4), 10 mM MgCl2 supplemented or not supplemented with 0.3 mg/mL fatty acid-free bovine serum albumin [manufactured by Wako Pure Chemical Industries, Ltd., Japan]). The reaction mixture was incubated in 96 well polypropylene plate for 1 hr at room temperature, and the reaction was quenched by rapid filtration (96 well cell harvester) through a GF/C filter treated with wash buffer (50 mM Tris (pH 7.4)). Subsequently, the filter was washed 5 times with 0.3 mL of ice-cooled wash buffer. The filter was air-dried, and [^125I]-angiotensin II binding radioactivity was assayed with Top Count scintillation counter. Total binding was measured in the presence of 1% DMSO and nonspecific binding was measured in the presence of 1 μM CV-11974. The binding data was analyzed by GraphPad Prism program and the IC50 value (compound concentration showing 50% of the maximum value of inhibition percent) of the test compound was calculated.

In the case of `CCSc1nc(C)c(Cc2ccccc2)c(=O)n1Cc1ccc(-c2ccccc2-c2noc(=O)[nH]2)cc1` [Example 3, 5-benzyl-2-(ethylthio)-6-methyl-3-{[2′-(5-oxo-4,5-dihydro-1,2,4-oxadiazol-3-yl)biphenyl-4-yl]methyl}pyrimidin-4(3H)-one], the activation at 1 µM in assay [1] was determined as 57.1%. In assay [2], the IC50 – broadly, the concentration that gives 50% inhibition – amounted to 2.5 nM.
The corresponding values for `CCOc1nc(C)c(Cc2ccccc2)c(=O)n1Cc1ccc(-c2ccccc2-c2noc(=O)[nH]2)cc1` [Example 4, 5-benzyl-2-ethoxy-6-methyl-3-{[2′-(5-oxo-4,5-dihydro-1,2,4-oxadiazol-3-yl)biphenyl-4-yl]methyl}pyrimidin-4(3H)-one] are 35.8% and 1.9 nM.
With `CCCc1nc(C)c(CC2CCCCO2)c(=O)n1Cc1ccc(-c2ccccc2-c2noc(=O)[nH]2)cc1` (stereo not drawn) [Example 7, 6-methyl-3-{[2′-(5-oxo-4,5-dihydro-1,2,4-oxadiazol-3-yl)biphenyl-4-yl]methyl}-2-propyl-5-(tetrahydro-2H-pyran-2-ylmethyl)pyrimidin-4(3H)-one], the activation at 1 µM in assay [1] came out at 42.6%. Besides, in assay [2], the IC50 was found to be 1.4 nM.
For `CCCc1nc(C)c(-c2ccc(OC(C)C)cc2)c(=O)n1Cc1ccc(-c2ccccc2-c2noc(O)n2)cc1` [Example 28, 5-(4-isopropoxyphenyl)-6-methyl-3-{[2′-(5-oxo-4,5-dihydro-1,2,4-oxadiazol-3-yl)biphenyl-4-yl]methyl}-2-propylpyrimidin-4(3H)-one], in assay [1], the activation at 1 µM was 16.2%. Further, the IC50 in assay [2] turned out to be 1.6 nM.
With `CCCCc1nc(C)n(Cc2cccs2)c(=O)c1Cc1ccc(-c2ccccc2-c2noc(=O)[nH]2)cc1` [Example 32, 6-butyl-2-methyl-5-{[2′-(5-oxo-4,5-dihydro-1,2,4-oxadiazol-3-yl)biphenyl-4-yl]methyl}-3-(2-thienylmethyl)pyrimidin-4(3H)-5 one], in assay [1], the activation at 1 µM stood at 55.6%. Besides, the IC50 in assay [2] worked out at 1.3 nM.
The corresponding values for `CCCCc1nc(C)n(CC(=O)C(C)(C)C)c(=O)c1Cc1ccc(-c2ccccc2-c2noc(=O)[nH]2)cc1` [Example 37, 6-butyl-3-(3,3-dimethyl-2-oxobutyl)-2-methyl-5-{[2′-(5-oxo-4,5-dihydro-1,2,4-oxadiazol-3-yl)biphenyl-4-yl]methyl}pyrimidin-4(3H)-one] are 29.8% and 1.3 nM.
The corresponding values for `CCCCc1nc(C)n(CC23CC4CC(CC(C4)C2)C3)c(=O)c1Cc1ccc(-c2ccccc2-c2noc(=O)[nH]2)cc1` [Example 42, 3-(1-adamantylmethyl)-6-butyl-2-methyl-5-{[2′-(5-oxo-4,5-dihydro-1,2,4-oxadiazol-3-yl)biphenyl-4-yl]methyl}pyrimidin-4(3H)-one] are 61.2% and 1.5 nM.
`CCCCc1nc(C)n(Cc2ccccc2)c(=O)c1Cc1ccc(-c2ccccc2-c2noc(=O)[nH]2)cc1` [Example 47, 3-benzyl-6-butyl-2-methyl-5-{[2′-(5-oxo-4,5-dihydro-1,2,4-oxadiazol-3-yl)biphenyl-4-yl]methyl}pyrimidin-4(3H) -one]: the activation at 1 µM in assay [1] is 61.2%. Moreover, in assay [2], the 50% inhibitory concentration (IC50) turned out to be 1.4 nM.
The corresponding values for `CCCCc1nc(C)n(CC2CCCCC2)c(=O)c1Cc1ccc(-c2ccccc2-c2noc(=O)[nH]2)cc1` [Example 48, 6-butyl-3-(cyclohexylmethyl)-2-methyl-5-{[2′-(5-oxo-4,5-dihydro-1,2,4-oxadiazol-3-yl)biphenyl-4-yl]methyl}pyrimidin-4(3H)-one] are 68.8% and 1.8 nM.
The corresponding values for `CCCCc1nc(C)n(Cc2ccccn2)c(=O)c1Cc1ccc(-c2ccccc2-c2noc(=O)[nH]2)cc1` [Example 50, 6-butyl-2-methyl-5-{[2′-(5-oxo-4,5-dihydro-1,2,4-oxadiazol-3-yl)biphenyl-4-yl]methyl}-3-(pyridin-2-ylmethyl)pyrimidin-4(3H)-one] are 34.3% and 1.7 nM.
With `CCCc1nc(C(F)F)n(-c2ccc(OC)cc2)c(=O)c1Cc1ccc(-c2ccccc2-c2noc(=O)[nH]2)cc1` [Example 410], the IC50 in assay [2] was found to be 2.1 nM.
